This experiment has as its system MAO. Put plainly: In vitro MAO inhibition. The class given is biochemical.

The record followed here is US4421767A, “Compounds and methods for treating depression” (priority 1982, dated 1983).

Regarding `NC(C(=O)O)C(=CF)c1cccc(O)c1` (racemic) [AFHBA, 2-Amino-4-fluoro-3-(3'-hydroxyphenyl)-3-butenoic acid], the “MAO inhibition in vitro” value is “inactive or very weak inhibitor”.
